Consider three compounds from article PMC11565046, “Rational design of 2H-chromene-based antiphytovirals that inhibit virion assembly by outcompeting virus capsid-RNA interactions” (iScience, 2024).

In one series the test system is PVY-GFP. The series can be described thus: Systemic infection of PVY-GFP in Nicotiana benthamiana (UV fluorescence, RT-qPCR). The class given is in vivo, potato virus Y. Particulars: 500 μg/mL spray, 7 dpai; for Green fluorescence under UV light: N. benthamiana, versus DMSO control; for PVY RNA accumulation level (control normalized as 100%): systemic leaves of N. benthamiana, RT-qPCR. From the text:
To evaluate the effect of C50 on PVY infection, we infiltrated the Nicotiana benthamiana plants with Agrobacterium carrying the PVY infectious clone pCamPVY-GFP. […] The RT-qPCR results for GFP were consistent with that of PVY RNA (Figure 3D).
The Nicotiana benthamiana plants were subjected to infestation by Agrobacterium tumefaciens, which carried either pCamPVY-GFP or an empty vector (mock). […] At 7 dpai, the leaves of N. benthamiana were looked at for the GFP using a LUYOR UV light (Shanghai, China), and captured in photographs. The foliage was gathered, rapidly frozen with liquid nitrogen, and subsequently preserved in a refrigerator set at a temperature of −80°C.
Leaf blades of Nicotiana benthamiana were pulverized into fine powder with the aid of liquid nitrogen, followed by the extraction of total RNA from the leaf tissue utilizing Trizol reagent (Invitrogen, California, USA). Subsequently, cDNA synthesis was conducted through reverse transcription with primers and a reverse transcription kit (Vazyme, Nanjing, China). Any potential DNA contamination was effectively removed using a gDNA wipe enzyme (Vazyme, Nanjing, China) as per the manufacturer’s guidelines. RT-qPCR analysis was carried out employing TB Green (TaKaRa, Beijing, China). Detailed information regarding the primers utilized in this investigation can be found in Table S2.
In general terms: Real-time PCR tracks product formation cycle by cycle.

The next series addresses T1, PVY CP^S125A (Potato virus Y, UniProt Q02963, S2919A).
T1 construct: 6xHis (N, cleaved yes); S-tag (N, cleaved yes); thioredoxin (Trx, from pET-32a); made in house; host or cells: E. coli BL21 (DE3)
T1 sequence (Q02963 2795-3061 S2919A): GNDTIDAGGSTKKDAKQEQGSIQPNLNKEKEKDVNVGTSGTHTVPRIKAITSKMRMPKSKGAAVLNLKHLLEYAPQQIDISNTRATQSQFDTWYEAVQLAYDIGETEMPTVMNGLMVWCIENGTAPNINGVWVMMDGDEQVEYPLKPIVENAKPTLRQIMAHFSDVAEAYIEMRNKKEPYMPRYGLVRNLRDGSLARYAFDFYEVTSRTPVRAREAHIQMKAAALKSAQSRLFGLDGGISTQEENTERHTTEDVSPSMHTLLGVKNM
The series can be described thus: MST assay for affinity with mutant PVY CP^S125A. The note with it: 25.0°C, read-out: Kd for binding to PVY CP^S125A.

The target in a further series is PVY CP^wt (Potato virus Y, UniProt A0A650FPI8). Kind of series: MST assay for affinity with PVY CP^wt. The series is classed as binding. From the text: Microscale thermophoresis (MST) serves as a potent technique for quantifying the strength of interactions occurring between small molecules and their respective ligands.[19]^,[20] The binding strength between specific target drugs and PVY CP^wt was investigated in vitro using MST, as depicted in Figures 5G and S3. This experimental approach aimed to acquire insights into how target compounds exert their influences against PVY. […] Similarly, the affinity of target compounds for interacting with PVY CP^S125A was tested.
The PVY CP^wt gene, the wild-type variant of the Potato Virus Y coat protein, was cloned into the pET-32a (+) prokaryotic expression vector. This recombinant vector was then thermally transformed into BL21 (DE3) bacterial host cells for subsequent protein expression. The strains above were cultivated on a liquid Luria-Bertani medium (180 rpm, 37°C). To initiate the expression of PVY CP, isopropyl β-D-1-thiogalactopyranoside (IPTG) was added to the culture medium at a concentration of […] when the optical density at 600 nm (OD600) reached a range between 0.6 and 0.8. This step triggered the production of the PVY CP protein. The induction process was maintained for 10 h (180 rpm, 16°C). The 6 × -His-S-tagged PVY CP^wt were purified using nickel-nitriloacetic acid by high-performance column affinity chromatography. Subsequently, enterokinase was employed to digest the proteins, and the desired target proteins were isolated using His-tag purification resin. Ultimately, the proteins were identified through the employment of a 12% sodium dodecyl sulfate-polyacrylamide gel electrophoresis method. The pET-32a (+) plasmid containing the PVY CP^wt gene was used as a template. […] The mutant protein was purified using the method for the purification of PVY CP^wt, which was PVY CP^S125A.
The proteins' binding affinity with target chemicals was evaluated using a Monolith NT.115 instrument (Nano Temper, Munich, Germany), utilizing established methods described in literature.[35]^,[48] A concentration of 2.0 mM was selected for the chemicals, and the proteins were tagged with the Monolith TM RED-NHS second-generation labeling kit. The MST assay analyzed the fluorescence intensity of the labeled proteins, focusing on a range from 400 to 1200 to investigate their interactions. The scanning method was conducted using an “LED power” setting of 40% and a temperature that was maintained at 25.0°C.

Series [1] has as its system PVY. Kind of series: Protective activity against PVY, half-leaf method on Chenopodium amaranticolor. The series is classed as in vivo. The note with it: Potato virus Y, in Chenopodium amaranticolor; 500 μg/mL; Chenopodium amaranticolor leaves; average of three replicates. The method, then: (§1) According to previous reports,[46] PVY was infested in Nicotiana tabacum K326, and PVY was harvested and purified after showing severe infection symptoms on the leaves. The literature-guided protocol was followed to assess the curative, prophylactic, and […] potential of the target compounds under investigation.[15]
A 500 μg/mL solution of the targeted compound was delicately applied to one side of C. amaranticolor leaves, while the other side was treated with a 1% Tween 80 aqueous solution. The plants were positioned in a greenhouse set at 25°C. Following a 24 h period, the entire leaf surface was inoculated with PVY by uniformly distributing 200–300 mesh emery. After 1.5 h, the emery was washed off with water, and the plants were returned to the greenhouse. After 5–7 days, the number of necrotic spots was tallied, with the assessment based on the greenhouse population. Each compound was tested in triplicate, and the average inhibition rate was subsequently calculated.

Series [2] concerns PVY. The series can be described thus: Curative activity against PVY, half-leaf method on Chenopodium amaranticolor. Particulars: Potato virus Y, in Chenopodium amaranticolor; 500 μg/mL; Chenopodium amaranticolor leaves; average of three replicates. The series is classed as in vivo.
From the text: as §1
To assess the curative effectiveness against PVY, a uniform layer of 200–300 mesh emery was applied to the leaves of C. amaranticolor, followed by rubbing with a virus solution. For 1.5 h, then the emery was washed off with water. After the leaves naturally dried, a 500 μg/mL solution of the test compound was carefully applied to one side of the leaf, while the opposite side received a 1% Tween 80 solution as a control. The plants were subsequently incubated in a greenhouse maintained at 25°C. After 5−7 days, the presence of necrotic spots on the leaves was recorded, with each compound tested on three replicate plants. The average inhibition rate was determined by analyzing the data from these replications.

Series [3] concerns PVY. The series can be described thus: Inactivating activity against PVY, half-leaf method on Chenopodium amaranticolor. The note with it: for EC50: Potato virus Y, in Chenopodium amaranticolor. The series is classed as in vivo, potato virus Y. Here is the method: as §1
Target compound solution (1,000 μg/mL) and 2 × virus solution were combined in equal quantities and incubated for 30 min. Evenly distribute emery onto the leaf blades, and apply the mixture of virus and compound solution onto the right side of C. amaranticolor leaf blades. Following this, an identical quantity of a 1× virus solution was applied to the untreated side of the leaf. Following a duration of 1.5 h, the emery residue present on the leaf surface was removed using a rinsing process utilizing water. The plants were incubated within a controlled greenhouse environment, maintaining a consistent temperature of 25°C. After 5−7 days, they proceeded to statistics the number of necrotic spots on the leaves. For each chemical, triplicate experiments were undertaken, and the average percentage of inhibition was subsequently determined.

[4] abbreviates: Chenopodium amaranticolor leaves, read-out: EC50 for inactivating activity.
Where [5] appears, read: inactivating activity, Table S1, read-out: Experimental pEC50 (converted).

Read-outs that look alike come from different tables or passages of the source.

For `Cc1ccc(S(=O)(=O)Nc2ccc(/N=C/c3ccc4c(c3O)C=CC(C)(C)O4)cc2)cc1` [Compound C50], the melting point fell in the range of 127 to 129 °C. Besides, in the series on PVY-GFP, the “Green fluorescence under UV light” value is listed as “noteworthy decrease in green fluorescence” and the “PVY RNA accumulation level (control normalized as 100%)” value is on record as 18.9%. For the same compound, the Kd on PVY CP^S125A came out at 125 µM. The compound also registered a Kd at PVY CP^wt of 1.6 µM. In the series on PVY [1], this compound returned an inhibition at 500 µg/mL of 60 to 70%. For the same compound, the inhibition at 500 µg/mL with PVY [2] lay within 60 to 70%. For the same compound, the EC50 in the series with PVY [3] (setting [4]) was 53.3 ± 4.3 µg/mL. The EC50 with PVY [3] (setting [5]) is 119 µM.
`CNCC(=O)N[C@@H](CO)C(=O)N[C@H]1[C@H](O)[C@@H](O)[C@H](n2ccc(N)nc2=O)O[C@@H]1C(N)=O` [NNM, Ningnanmycin, reference compound]: in the series with PVY-GFP, the “Green fluorescence under UV light” value is listed as “noteworthy decrease in green fluorescence” and the “PVY RNA accumulation level (control normalized as 100%)” value is on record as 51.8%. Binding at PVY CP^wt was characterised by a dissociation constant (Kd) of 8.6 µM. Also, the “EC50 for inactivating activity” value in the series on PVY [3] (Chenopodium amaranticolor leaves) turned out to be 75.7 ± 4.0 µg/mL. Besides, in the series on PVY [3] (read-out: EC50 for inactivating activity, Chenopodium amaranticolor leaves), the EC50 stood at 73.7 µg/mL.
As to `CC1(C)C=Cc2c(ccc(/C=N/c3ccc(NS(=O)(=O)c4ccc(Cl)cc4)cc3)c2O)O1` [Compound C6, (E)-4-chloro-N-(4-(((5-hydroxy-2,2-dimethyl-2H-chromen-6-yl)methylene)amino)phenyl) benzenesulfonamide], the melting point was 139 to 141 °C. Besides, on PVY CP^S125A, the Kd was determined as 312 ± 40.3 µM. The Kd at PVY CP^wt came to 4.4 µM. Besides, the EC50 in the series with PVY [3] (setting [4]) came out at 56.7 ± 4.2 µg/mL. For the same compound, in the series on PVY [3] (setting [5]), the EC50 is 121 µM.

A word on the Kd: it is a measure of binding affinity in units of concentration. In general, melting point refers to the temperature, or range, at which the solid turns liquid. Broadly, the inhibition is the change of the read-out against control, counted positive when it falls. High values mean strong suppression, low ones little suppression.
